Measurements: patent publication EP0140492B1 (WARNER-LAMBERT COMPANY, priority 1983, dated 1985)
Where two headings read alike, the source gives them in different places. Marks after values point to notes of the source that are not given here.

Assay: Plasma levels of isoxicam and bioavailability parameters after a single oral dose to beagle dogs
Assay type: in vivo
Settings: for Plasma levels of isoxicam / Plasma levels of isoxicam, Mean: 100 mg/dog oral (isoxicam equivalents); for AUC(0-inf) / half-life / Cmax / Tmax: dog, in vivo, po, 100 mg; for Tmax: read-out: Tmax; for Plasma levels of isoxicam, Mean: mean of dogs
Protocol: The range for the individual animals was 51.4 to 63.0 µg/ml with three animals having a peak time of two hours and the final animal at eight hours. These plasma levels were considerably higher when compared to micronized isoxicam. […] Peak plasma concentrations for individual animals ranged from […] between three and six hours postdose.
Areas under the plasma concentrations versus time curve (AUC^0-∞) were calculated using the trapezoidal rule and extrapolated to infinity with the appropriate elimination rate constants.

[1] = Mean of four dogs, oral 100 mg (free acid equivalents)
[2] = dog 1930, oral 100 mg (free acid equivalents)
[3] = dog 1942, oral 100 mg (free acid equivalents)
[4] = dog 117668, oral 100 mg (free acid equivalents)
[5] = dog 120064, oral 100 mg (free acid equivalents)

## Cc1cc(NC(=O)C2=C(O)c3ccccc3S(=O)(=O)N2C)no1 [arginine isoxicamate, L-arginine isoxicamate]
Dog 1930, time 0.5 h postdose
  Plasma levels of isoxicam: 29.6 µg/mL
Dog 1930, time 1.0 h postdose
  Plasma levels of isoxicam: 43.4 µg/mL
Dog 1930, time 2.0 h postdose
  Plasma levels of isoxicam: 51.4 µg/mL
Dog 1930, time 3.0 h postdose
  Plasma levels of isoxicam: 47.5 µg/mL
Dog 1930, time 4.0 h postdose
  Plasma levels of isoxicam: 48.9 µg/mL
Dog 1930, time 6.0 h postdose
  Plasma levels of isoxicam: 48.3 µg/mL
Dog 1930, time 8.0 h postdose
  Plasma levels of isoxicam: 42.6 µg/mL
Dog 1930, time 12.0 h postdose
  Plasma levels of isoxicam: 37.8 µg/mL
Dog 1930, time 24.0 h postdose
  Plasma levels of isoxicam: 32.8 µg/mL
Dog 1930, time 32.0 h postdose
  Plasma levels of isoxicam: 25.2 µg/mL
Dog 1930, time 48.0 h postdose
  Plasma levels of isoxicam: 25.0 µg/mL
Dog 1930, time 72.0 h postdose
  Plasma levels of isoxicam: 14.6 µg/mL
Dog 1930, time 96.0 h postdose
  Plasma levels of isoxicam: 10.2 µg/mL
Dog 1930, time 192.0 h postdose
  Plasma levels of isoxicam: 1.56 µg/mL
Dog 1930, time 240.0 h postdose
  Plasma levels of isoxicam: 0.89 µg/mL
Dog 1942, time 0.5 h postdose
  Plasma levels of isoxicam: 7.99 µg/mL
Dog 1942, time 1.0 h postdose
  Plasma levels of isoxicam: 28.1 µg/mL
Dog 1942, time 2.0 h postdose
  Plasma levels of isoxicam: 58.6 µg/mL
Dog 1942, time 3.0 h postdose
  Plasma levels of isoxicam: 51.7 µg/mL
Dog 1942, time 4.0 h postdose
  Plasma levels of isoxicam: 53.9 µg/mL
Dog 1942, time 6.0 h postdose
  Plasma levels of isoxicam: 50.5 µg/mL
Dog 1942, time 8.0 h postdose
  Plasma levels of isoxicam: 42.2 µg/mL
Dog 1942, time 12.0 h postdose
  Plasma levels of isoxicam: 39.4 µg/mL
Dog 1942, time 24.0 h postdose
  Plasma levels of isoxicam: 35.6 µg/mL
Dog 1942, time 32.0 h postdose
  Plasma levels of isoxicam: 25.7 µg/mL
Dog 1942, time 48.0 h postdose
  Plasma levels of isoxicam: 25.5 µg/mL
Dog 1942, time 72.0 h postdose
  Plasma levels of isoxicam: 17.1 µg/mL
Dog 1942, time 96.0 h postdose
  Plasma levels of isoxicam: 8.96 µg/mL
Dog 1942, time 153.5 h postdose
  Plasma levels of isoxicam: 2.34 µg/mL
Dog 1942, time 192.0 h postdose
  Plasma levels of isoxicam: 1.28 µg/mL
Dog 1942, time 240.0 h postdose
  Plasma levels of isoxicam: 0.60 µg/mL
Dog 117668, row 192.0, actual time=193 hours
  Plasma levels of isoxicam: 0.85* µg/ml
Dog 117668, time 0.5 h postdose
  Plasma levels of isoxicam: 22.8 µg/mL
Dog 117668, time 1.0 h postdose
  Plasma levels of isoxicam: 42.6 µg/mL
Dog 117668, time 3.0 h postdose
  Plasma levels of isoxicam: 55.1 µg/mL
Dog 117668, time 4.0 h postdose
  Plasma levels of isoxicam: 59.3 µg/mL
Dog 117668, time 6.0 h postdose
  Plasma levels of isoxicam: 50.2 µg/mL
Dog 117668, time 8.0 h postdose
  Plasma levels of isoxicam: 63.0 µg/mL
Dog 117668, time 24.0 h postdose
  Plasma levels of isoxicam: 30.5 µg/mL
Dog 117668, time 32.0 h postdose
  Plasma levels of isoxicam: 29.6 µg/mL
Dog 117668, time 48.0 h postdose
  Plasma levels of isoxicam: 18.6 µg/mL
Dog 117668, time 72.0 h postdose
  Plasma levels of isoxicam: 10.7 µg/mL
Dog 117668, time 96.0 h postdose
  Plasma levels of isoxicam: 5.10 µg/mL
Dog 117668, time 153.5 h postdose
  Plasma levels of isoxicam: 1.27 µg/mL
Dog 117668, time 240.0 h postdose
  Plasma levels of isoxicam: 0.51 µg/mL
Dog 120064, row 192.0, actual time=193 hours
  Plasma levels of isoxicam: 2.17* µg/ml
Dog 120064, time 0.5 h postdose
  Plasma levels of isoxicam: 1.11 µg/mL
Dog 120064, time 1.0 h postdose
  Plasma levels of isoxicam: 15.5 µg/mL
Dog 120064, time 2.0 h postdose
  Plasma levels of isoxicam: 51.8 µg/mL
Dog 120064, time 3.0 h postdose
  Plasma levels of isoxicam: 46.3 µg/mL
Dog 120064, time 4.0 h postdose
  Plasma levels of isoxicam: 50.5 µg/mL
Dog 120064, time 6.0 h postdose
  Plasma levels of isoxicam: 49.6 µg/mL
Dog 120064, time 8.0 h postdose
  Plasma levels of isoxicam: 42.0 µg/mL
Dog 120064, time 24.0 h postdose
  Plasma levels of isoxicam: 31.3 µg/mL
Dog 120064, time 32.0 h postdose
  Plasma levels of isoxicam: 34.8 µg/mL
Dog 120064, time 48.0 h postdose
  Plasma levels of isoxicam: 21.5 µg/mL
Dog 120064, time 72.0 h postdose
  Plasma levels of isoxicam: 17.6 µg/mL
Dog 120064, time 96.0 h postdose
  Plasma levels of isoxicam: 9.39 µg/mL
Dog 120064, time 153.5 h postdose
  Plasma levels of isoxicam: 3.52 µg/mL
Dog 120064, time 240.0 h postdose
  Plasma levels of isoxicam: 1.26 µg/mL
[1]
  AUC(0-inf): 2840 µg·h/mL
  Tmax: 3 h
Mean of four dogs, oral 100 mg (free acid equivalents), elimination half-life, read-out: Half-life (converted)
  half-life: 36.2 h
Mean of four dogs, oral 100 mg (free acid equivalents), read-out: Cmax
  Cmax: 55300 ng/mL
[2]
  AUC(0-inf): 2910 µg·h/mL
  Tmax: 2 h
Dog 1930, oral 100 mg (free acid equivalents), elimination half-life, read-out: Half-life (converted)
  half-life: 38.8 h
Dog 1930, oral 100 mg (free acid equivalents), read-out: Cmax
  Cmax: 51400 ng/mL
[3]
  AUC(0-inf): 2920 µg·h/mL
  Tmax: 2 h
Dog 1942, oral 100 mg (free acid equivalents), elimination half-life, read-out: Half-life (converted)
  half-life: 34.4 h
Dog 1942, oral 100 mg (free acid equivalents), read-out: Cmax
  Cmax: 58600 ng/mL
[4]
  AUC(0-inf): 2590 µg·h/mL
  Tmax: 6 h
Dog 117668, oral 100 mg (free acid equivalents), elimination half-life, read-out: Half-life (converted)
  half-life: 27 h
Dog 117668, oral 100 mg (free acid equivalents), read-out: Cmax
  Cmax: 59300 ng/mL
[5]
  AUC(0-inf): 2950 µg·h/mL
  Tmax: 2 h
Dog 120064, oral 100 mg (free acid equivalents), elimination half-life, read-out: Half-life (converted)
  half-life: 44.8 h
Dog 120064, oral 100 mg (free acid equivalents), read-out: Cmax
  Cmax: 51800 ng/mL
Four dogs, 100 mg oral, read-out: Mean Cmax
  Cmax: 56200 ± 5600 ng/mL
Four dogs, 100 mg oral, read-out: Mean half-lives (elimination, linear regression of semilogarithmic data) (converted)
  half-life: 36.2 ± 7.5 h
Four dogs, 100 mg oral, trapezoidal rule extrapolated to infinity
  mean AUC^0-∞: 2840 ± 170 µg·h/mL
Time 0.5 h postdose
  Plasma levels of isoxicam, Mean: 15400 ng/mL
Time 1.0 h postdose
  Plasma levels of isoxicam, Mean: 32400 ng/mL
Time 2.0 h postdose
  Plasma levels of isoxicam, Mean: 53900 ng/mL
Time 3.0 h postdose
  Plasma levels of isoxicam, Mean: 50200 ng/mL
Time 4.0 h postdose
  Plasma levels of isoxicam, Mean: 53200 ng/mL
Time 6.0 h postdose
  Plasma levels of isoxicam, Mean: 49600 ng/mL
Time 8.0 h postdose
  Plasma levels of isoxicam, Mean: 47400 ng/mL
Time 12.0 h postdose
  Plasma levels of isoxicam, Mean: 38600 ng/mL
Time 24.0 h postdose
  Plasma levels of isoxicam, Mean: 32600 ng/mL
Time 32.0 h postdose
  Plasma levels of isoxicam, Mean: 28800 ng/mL
Time 48.0 h postdose
  Plasma levels of isoxicam, Mean: 22600 ng/mL
Time 72.0 h postdose
  Plasma levels of isoxicam, Mean: 15000 ng/mL
Time 96.0 h postdose
  Plasma levels of isoxicam, Mean: 8410 ng/mL
Time 153.5 h postdose
  Plasma levels of isoxicam, Mean: 2460 ng/mL
Time 192.0 h postdose (two dogs actually 193 hours)
  Plasma levels of isoxicam, Mean: 1460 ng/mL
Time 240.0 h postdose
  Plasma levels of isoxicam, Mean: 820 ng/mL
Reached at two hours postdose, 100 mg (free acid equivalents) per oral dose, dogs
  mean peak plasma concentration: 53.9±4.0 Ilg/ml
The final (fourth) animal, 100 mg oral
  peak time: eight
Three animals of four, 100 mg oral
  peak time: two
